Where two headings read alike, the source gives them in different places.
Assays:
PC3 cells = experiment: Ribosome profiling and RNA-seq of PC3 cells (translational efficiency, mRNA abundance); type: cell-based, human;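 also: mRNA is RNA-seq average read density per codon over the coding sequence, translational efficiency is ribosome footprint over RNA-seq density, scaled so the median gene equals 1.0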
Protocol: Given the critical role for mTOR in prostate cancer, PC3 human prostate cancer cells, in which mTOR is constitutively hyperactivated, were used to delineate translationally controlled gene expression networks upon complete or partial mTOR inhibition. Ribosome profiling was optimized to assess quantitatively ribosome occupancy genome-wide in cancer cells.
Cells were subsequently treated with cycloheximide (100 μg ml^−1) and detergent lysis was performed in the dish. The lysate was treated with DNase and clarified, and a sample was taken for RNA-seq analysis. Lysates were subjected to ribosome footprinting by nuclease treatment. Ribosome-protected fragments were purified, and deep sequencing libraries were generated from these fragments, as well as from poly(A) mRNA purified from non-nuclease-treated lysates.
Ribosome footprint and RNA-seq sequencing reads were aligned against a library of transcripts from the UCSC Known Genes database GRCh37/hg19. The first 25 nucleotides of each read were aligned using Bowtie and this initial alignment was then extended to encompass the full fragment-derived portion of the sequencing read while excluding the linker sequence. Read density profiles were then constructed for the canonical transcript of each gene, using only reads with 0 or 1 total mismatches between the read sequence and the reference sequence, comprised of the transcript fragment followed by the linker sequence. Footprint reads were assigned to an A site nucleotide at position +15 to +17 of the alignment, based on the total fragment length; mRNA reads were assigned to the first nucleotide of the alignment. The average read density per codon was then computed for the coding sequence of each transcript, excluding the first 15 and last 5 codons, which can display atypical ribosome accumulation.
Average read density was used as a measure of mRNA abundance (RNA-seq reads) and of protein synthesis (ribosome profiling reads). For most analyses, genes were filtered to require at least 256 reads in the relevant RNA-seq samples. Translational efficiency was computed as the ratio of ribosome footprint read density to RNA-seq read density, scaled to normalize the translational efficiency of the median gene to 1.0 after excluding regulated genes (log2 fold-change ±1.5 after normalizing for the all-gene median). Changes in protein synthesis, mRNA abundance and translational efficiency were similarly computed as the ratio of read densities between different samples, normalized to give the median gene a ratio of 1.0. This normalization corrects for differences in the absolute number of sequencing reads obtained for different libraries.

Pten^L/L mice = experiment: Pharmacological treatment of Pten^L/L mice (preclinical trial, prostate cancer); type: in vivo, mouse; details: Pten^L/L mice, RAD001 10 mg/kg daily
Protocol: Pten^loxp/loxp and Pb-cre mice where obtained from Jackson Laboratories and Mouse Models of Human Cancers Consortium (MMHCC), respectively, and maintained in the C57BL/6 background. Mice were maintained under specific pathogen-free conditions, and experiments were performed in compliance with institutional guidelines as approved by the Institutional Animal Care and Use Committee of UCSF.
Weight measurements were taken every 3 days to monitor for toxicity. For the 28-day study, mice were imaged via […] at day 0 and day 28 in a 14-T GE MR scanner (GE Healthcare).
Whole mouse prostates were removed from wild-type and Pten^L/L mice, microdissected, and frozen in liquid nitrogen. Frozen tissues were subsequently manually disassociated using a biopulverizer (Biospec) and additionally processed for protein and mRNA analysis as described above.
Prostates and lymph nodes were dissected from mice within 2 hr of the indicated treatment and fixed in 10% formalin overnight at 4° C. Tissues were subsequently dehydrated in ethanol (Sigma) at room temperature, mounted into paraffin blocks, and sectioned at […] Specimens were de-paraffinized and rehydrated using CitriSolv (Fisher) followed by serial ethanol washes. […] Sections were washed in distilled water followed by TBS washes. The sections were then incubated in 5% goat serum, 1% BSA in TBS for 1 hr at room temperature. Various primary antibodies were used, including those specific for keratin 5 (Covance), cytokeratin 8 (Abcam and Covance), YB1 (Abcam), vimentin (Abcam), MTA1 (Cell signaling), CD44 (BD Pharmingen), and the androgen receptor (Epitomics), which were diluted 1:50-1:500 in blocking solution and incubated on sections overnight at 4° C. Specimens were then washed in TBS and incubated with the appropriate Alexa 488 and 594 labeled secondary (Invitrogen) at 1:500 for 2 hr at room temperature, with the exception of YB1 which was incubated with biotinylated anti-rabbit secondary (Vector) followed by incubation with Alexa 594 labeled Streptavidin (Invitrogen). A final set of washes in TBS was completed at room temperature followed by mounting with DAPI Hardset Mounting Medium (Vector Lab). A Zeiss Spinning Disc confocal (Zeiss, CSU-X1) was used to image the sections at 40×-100×. Individual prostate cells were quantified for mean fluorescence intensity (m.f.i.) using the Axiovision (Zeiss, Release 4.8) densitometric tool.
Mouse lymph nodes were processed as described above and stained for CK8 and androgen receptor. Lymph nodes were imaged using a Zeiss AX10 microscope. Metastases were identified and areas were measured using the Axiovision (Zeiss, Release 4.8) measurement tool.
Immunohistochemistry was performed as described above (see “Immunofluorescence”) with the exception that immediately after antigen […] and TBS washes, specimens were incubated in 3% hydrogen peroxide in TBS followed by TBS washes. The following primary antibodies were used: phospho-AKT^S473 (Cell Signaling), phospho-rpS6^S240/244 (Cell Signaling), phospho-4EBP1^T37/46 (Cell Signaling), phospho-histone H3 (Upstate), and cleaved caspase (Cell Signaling). This was followed by TBS washes and incubation with the appropriate biotinylated secondary antibody (Vector Lab) for 30 min at room temperature. An ABC-HRP Kit (Vector Lab) was used to amplify the signal, followed by a brief incubation in hydrogen peroxide. The protein of interest was detected using DAB (Sigma). Specimens were counterstained with haematoxylin (Thermo Scientific), dehydrated with Citrisolv (Fisher), and mounted with Cytoseal XYL (Vector Lab).
Paraffin-embedded prostate specimens were deparaffinized and rehydrated as described above (see “Immunofluorescence”), stained with haematoxylin (Thermo Scientific), and washed with water. This was followed by a brief incubation in differentiation RTU (VWR) and two washes with water followed by two 70% ethanol washes. […]

V600E-BRAF tumor cells = details: cited from earlier work

CO[C@H]1C[C@@H]2CC[C@@H](C)[C@@](O)(O2)C(=O)C(=O)N2CCCC[C@H]2C(=O)O[C@H]([C@H](C)C[C@@H]2CC[C@@H](O)[C@H](OC)C2)CC(=O)[C@H](C)/C=C(\C)[C@@H](O)[C@@H](OC)C(=O)[C@H](C)C[C@H](C)/C=C/C=C/C=C/1C [rapamycin]
TrlEff (PC3 cells; gene ACTG1): −0.07
mRNA (PC3 cells; gene ACTG1): 0.02
mRNA (PC3 cells; gene AGRN): 0.01
mRNA (PC3 cells; gene AHCY): 0.20
mRNA (PC3 cells; gene ALKBH7): 0.06
TrlEff (PC3 cells; gene AP2A1): −0.04
mRNA (PC3 cells; gene AP2A1): 0.09
TrlEff (PC3 cells; gene ARD1A): 0.01
mRNA (PC3 cells; gene ARD1A): −0.04
TrlEff (PC3 cells; gene C21orf66): −0.09
mRNA (PC3 cells; gene C21orf66): −0.30
TrlEff (PC3 cells; gene CIRBP): 0.10
mRNA (PC3 cells; gene CLPTM1): 0.07
mRNA (PC3 cells; gene COL6A2): −0.08
mRNA (PC3 cells; gene ECSIT): −0.04
TrlEff (PC3 cells; gene EEF1A2): −0.03
mRNA (PC3 cells; gene EEF1A2): 0.03
TrlEff (PC3 cells; gene EVPL): 0.30
mRNA (PC3 cells; gene EVPL): −0.08
mRNA (PC3 cells; gene FAM128B): 0.06
mRNA (PC3 cells; gene IPO7): 0.20
TrlEff (PC3 cells; gene MTA1): −0.05
mRNA (PC3 cells; gene MTA1): 0.00
mRNA (PC3 cells; gene NCLN): −0.05
TrlEff (PC3 cells; gene PABPC4): −0.80
TrlEff (PC3 cells; gene PACS1): 0.04
mRNA (PC3 cells; gene PACS1): 0.07
TrlEff (PC3 cells; gene PGLS): 0.20
mRNA (PC3 cells; gene PGLS): 0.03
mRNA (PC3 cells; gene PGM1): 0.40
mRNA (PC3 cells; gene RABGGTB): −0.20
mRNA (PC3 cells; gene RPL6): 0.09
TrlEff (PC3 cells; gene RPL8): −0.40
TrlEff (PC3 cells; gene RPL9): −1.00
mRNA (PC3 cells; gene RPL10): 0.09
mRNA (PC3 cells; gene RPL11): 0.09
mRNA (PC3 cells; gene RPL12): 0.07
mRNA (PC3 cells; gene RPL14): 0.07
mRNA (PC3 cells; gene RPL17): 0.05
mRNA (PC3 cells; gene RPL18): 0.08
mRNA (PC3 cells; gene RPL22): 0.08
mRNA (PC3 cells; gene RPL23): 0.09
mRNA (PC3 cells; gene RPL27): 0.05
mRNA (PC3 cells; gene RPL27A): 0.06
TrlEff (PC3 cells; gene RPL29): −0.50
mRNA (PC3 cells; gene RPL29): 0.10
mRNA (PC3 cells; gene RPL31): −0.02
mRNA (PC3 cells; gene RPL36): 0.09
mRNA (PC3 cells; gene RPL37A): 0.08
mRNA (PC3 cells; gene RPL41): 0.04
mRNA (PC3 cells; gene RPS2): 0.07
mRNA (PC3 cells; gene RPS8): 0.09
TrlEff (PC3 cells; gene RPS9): −0.60
mRNA (PC3 cells; gene RPS9): 0.10
mRNA (PC3 cells; gene RPS13): 0.07
TrlEff (PC3 cells; gene RPS14): −0.60
mRNA (PC3 cells; gene RPS14): 0.10
TrlEff (PC3 cells; gene RPS15): 0.03
mRNA (PC3 cells; gene RPS15): −0.01
mRNA (PC3 cells; gene RPS15A): 0.07
TrlEff (PC3 cells; gene RPS21): −0.60
mRNA (PC3 cells; gene RPS21): −0.01
mRNA (PC3 cells; gene RPS25): 0.04
mRNA (PC3 cells; gene RPS27): 0.10
TrlEff (PC3 cells; gene RPS28): −0.80
mRNA (PC3 cells; gene RPS28): 0.01
mRNA (PC3 cells; gene RPS29): −0.01
TrlEff (PC3 cells; gene SLC25A5): −0.30
mRNA (PC3 cells; gene TKT): 0.02
TrlEff (PC3 cells; gene VIM): −0.40

CO[C@H]1C[C@@H]2CC[C@@H](C)[C@@](O)(O2)C(=O)C(=O)N2CCCC[C@H]2C(=O)O[C@H]([C@H](C)C[C@@H]2CC[C@@H](OCCO)[C@H](OC)C2)CC(=O)[C@H](C)/C=C(\C)[C@@H](O)[C@@H](OC)C(=O)[C@H](C)C[C@H](C)/C=C/C=C/C=C/1C [RAD001]
regression of PIN lesions (Pten^L/L mice; 28 days): only partial regression
proliferation (phospho-histone H3) (Pten^L/L mice; ATP site inhibitor of mTOR 1 mg/kg daily): limited decrease

O=C(NOC[C@H](O)CO)c1ccc(F)c(F)c1Nc1ccc(I)cc1F [PD0325901]
PNAS rna (V600E-BRAF tumor cells; gene ALF/GTF2A1L): 2.7 log2 MEKi/DMSO
PNAS rna (V600E-BRAF tumor cells; gene ARID5A): −1.7 log2 MEKi/DMSO
PNAS rna (V600E-BRAF tumor cells; gene B4GALT6): −1.7 log2 MEKi/DMSO
PNAS rna (V600E-BRAF tumor cells; gene BXDC2/BRIX1): −1.2 log2 MEKi/DMSO
PNAS rna (V600E-BRAF tumor cells; gene BYSL): −1.2 log2 MEKi/DMSO
PNAS rna (V600E-BRAF tumor cells; gene CCND1): −2.2 log2 MEKi/DMSO
PNAS rna (V600E-BRAF tumor cells; gene CD3EAP): −1.4 log2 MEKi/DMSO
PNAS rna (V600E-BRAF tumor cells; gene CHSY1): −1.3 log2 MEKi/DMSO
PNAS rna (V600E-BRAF tumor cells; gene DDX21): −1.1 log2 MEKi/DMSO
PNAS rna (V600E-BRAF tumor cells; gene DUSP4): −2.2 log2 MEKi/DMSO
PNAS rna (V600E-BRAF tumor cells; gene DUSP6): −2.6 log2 MEKi/DMSO
PNAS rna (V600E-BRAF tumor cells; gene EGR1): −2.1 log2 MEKi/DMSO
PNAS rna (V600E-BRAF tumor cells; gene ELOVL6): −1.5 log2 MEKi/DMSO
PNAS rna (V600E-BRAF tumor cells; gene ETV1): −2.6 log2 MEKi/DMSO
PNAS rna (V600E-BRAF tumor cells; gene ETV4): −2.2 log2 MEKi/DMSO
PNAS rna (V600E-BRAF tumor cells; gene ETV5): −1.7 log2 MEKi/DMSO
PNAS rna (V600E-BRAF tumor cells; gene FLJ10534/TSR1): −1.1 log2 MEKi/DMSO
PNAS rna (V600E-BRAF tumor cells; gene FOS): −3.4 log2 MEKi/DMSO
PNAS rna (V600E-BRAF tumor cells; gene FOSL1): −4.2 log2 MEKi/DMSO
PNAS rna (V600E-BRAF tumor cells; gene GEMIN4): −1.2 log2 MEKi/DMSO
PNAS rna (V600E-BRAF tumor cells; gene GNL3): −1.0 log2 MEKi/DMSO
PNAS rna (V600E-BRAF tumor cells; gene GPR3): −2.1 log2 MEKi/DMSO
PNAS rna (V600E-BRAF tumor cells; gene GTPBP4): −1.1 log2 MEKi/DMSO
PNAS rna (V600E-BRAF tumor cells; gene HMGA2): −1.6 log2 MEKi/DMSO
PNAS rna (V600E-BRAF tumor cells; gene HSPC111/NOP16): −1.3 log2 MEKi/DMSO
PNAS rna (V600E-BRAF tumor cells; gene HYDIN): 2.1 log2 MEKi/DMSO
PNAS rna (V600E-BRAF tumor cells; gene IER3): −3.3 log2 MEKi/DMSO
PNAS rna (V600E-BRAF tumor cells; gene IL8): −2.5 log2 MEKi/DMSO
PNAS rna (V600E-BRAF tumor cells; gene KIR3DL2): 1.7 log2 MEKi/DMSO
PNAS rna (V600E-BRAF tumor cells; gene LIF): −3.2 log2 MEKi/DMSO
PNAS rna (V600E-BRAF tumor cells; gene LNK/SH2B3): −2.0 log2 MEKi/DMSO
PNAS rna (V600E-BRAF tumor cells; gene MAFF): −2.7 log2 MEKi/DMSO
PNAS rna (V600E-BRAF tumor cells; gene MAP2K3): −1.5 log2 MEKi/DMSO
PNAS rna (V600E-BRAF tumor cells; gene MYC): −2.4 log2 MEKi/DMSO
PNAS rna (V600E-BRAF tumor cells; gene PHLDA2): −2.2 log2 MEKi/DMSO
PNAS rna (V600E-BRAF tumor cells; gene PLK3): −2.3 log2 MEKi/DMSO
PNAS rna (V600E-BRAF tumor cells; gene POLR1C): −1.0 log2 MEKi/DMSO
PNAS rna (V600E-BRAF tumor cells; gene POLR3G): −1.0 log2 MEKi/DMSO
PNAS rna (V600E-BRAF tumor cells; gene PPAN): −1.2 log2 MEKi/DMSO
PNAS rna (V600E-BRAF tumor cells; gene PPAT): −1.1 log2 MEKi/DMSO
PNAS rna (V600E-BRAF tumor cells; gene PYCRL): −2.6 log2 MEKi/DMSO
PNAS rna (V600E-BRAF tumor cells; gene RRS1): −1.8 log2 MEKi/DMSO
PNAS rna (V600E-BRAF tumor cells; gene SEMA6A): 2.1 log2 MEKi/DMSO
PNAS rna (V600E-BRAF tumor cells; gene SLC1A5): −1.2 log2 MEKi/DMSO
PNAS rna (V600E-BRAF tumor cells; gene SLC4A7): −1.6 log2 MEKi/DMSO
PNAS rna (V600E-BRAF tumor cells; gene SPRED2): −1.0 log2 MEKi/DMSO
PNAS rna (V600E-BRAF tumor cells; gene SPRY2): −4.0 log2 MEKi/DMSO
PNAS rna (V600E-BRAF tumor cells; gene SPRY4): −2.6 log2 MEKi/DMSO
PNAS rna (V600E-BRAF tumor cells; gene TNC): −2.5 log2 MEKi/DMSO
PNAS rna (V600E-BRAF tumor cells; gene TNFRSF12A): −1.5 log2 MEKi/DMSO
PNAS rna (V600E-BRAF tumor cells; gene WDR3): −1.1 log2 MEKi/DMSO
PNAS rna (V600E-BRAF tumor cells; gene YRDC): −1.2 log2 MEKi/DMSO
